Data set [1] concerns S. mutans UA159. The experiment in a line: Biofilm inhibition, S. mutans UA159 (crystal violet, OD562). It counts as cell-based, Streptococcus mutans. To be noted: for IC50 / inhibition at 50 µM: Streptococcus mutans; for inhibition at 50 µM: UA159, 50 μM; for S. mutans biofilm inhibition: 50 μM. As for the experimental part:
(§1) The bacterial strains, S. mutans UA159, S. gordonii DL1, and S. sanguinis SK36 were inoculated statically at 37° C. under 5% CO2 in Todd Hewitt Broth (THB) for 24 h. The cultures were then diluted with fresh THB (1:5) and reinoculated until optical density at 470 nm (OD470) reached 1. The optical density was read using BioTek 800TS microplate reader at 470 nm for bacterial growth and 562 nm for biofilm stained with crystal violet. Data was plotted in Graphpad Prism9.
Biofilm inhibition assays. Biofilm inhibition assays were performed in polystyrene microtiter 96 well plates. Stock solutions were prepared in chemically defined medium (CDM, JRH Biosciences, Lenexa, KS) with 2% sucrose, 1% bacteria cultures and various concentrations of the small molecule inhibitors to examine their activity against biofilm formation as described^69, 70. These stocks were assayed in 96 well plates in triplicate and incubated at 37° C. and 5% CO2 for 16 h. After reading optical density for bacterial growth, the plate was gently washed with water, dried, and stained with crystal violet, and then gently rinsed again with deionized water leaving the stained biofilm at the bottoms of the wells. Biofilms was dissolved in 200 μL of 30% acetic acid and absorbance at 562 nm was used read to determine biofilm biomass. Each assay was carried out at least in triplicate. Biofilm inhibitory concentration (IC50) of the compounds was determined by serial dilutions.
(§2) All bacterial strains (S. mutans UA159, S. gordonii DL1, and S. sanguinis SK36) were inoculated statically at 37° C. under 5% CO2 environment in Todd Hewitt Broth (THB) for 24 h^[61]. The cultures were then diluted with fresh THB (1:5) and reinoculated until the optical density at 470 nm reaches 1. The optical density was read using BioTek 800 TS absorbance reader at 470 nm for bacterial growth and 562 nm for biofilm stained with crystal violet. Data was plotted in Prism 10.0.2.
Biofilm inhibition assays were performed in polystyrene microtiter 96-well plates. Stock solutions were prepared in chemically defined medium (CDM) with 1% sucrose, 1% bacteria cultures and various concentrations of the small molecule inhibitors to examine their activity against biofilm formation as described^[62, 63]. These stocks were assayed in 96 well plates in triplicate and incubated at 37° C. and 5% CO2 for 16 h. After reading optical density for bacterial growth, the plate was washed, dried, and stained with 0.1% crystal violet which was again rinsed well with deionized water leaving the stained biofilm at the bottoms of the wells. This biofilm was dissolved in 200 μL of 30% acetic acid and absorbance at 562 nm was read to determine amount of biofilm formation. Each assay was carried out at least in triplicate. Biofilm inhibitor concentration (IC50) of the compounds was determined by serial dilutions from 0 μM-50 μM (1% DMSO).

The subject of data set [2] is S. mutans UA159. The data set can be described thus: Planktonic growth, S. mutans UA159 (OD470). The format is cell-based, Streptococcus mutans. To be noted: for inhibition at 50 µM: Streptococcus mutans, UA159, read-out: planktonic growth inhibition of S. mutans, 50 μM. As for the experimental part:
as §1
(§3) S. mutans, S. gordonii, and S. sanguinis growth assays. Effects of compounds on S. mutans and commensal bacterial growth were evaluated using the growth assay as described^69. S. mutans UA159, S. gordonii DL1, S. sanguinis SK36, cultures were grown for 24 h under 5% CO2 at 37° C. These cultures were then reinoculated with fresh THB (1:5) until OD470=1 when the bacteria were ready to be used. Different concentrations of the inhibitor were assayed in chemically defined media (CDM) with 1% of the bacteria, 1% sucrose and 1% DMSO in 96 well plates. The 96 well plates were incubated under 5% CO2 at 37° C. for 16 h. Growth of the bacteria was read after 16 h at OD470. Each assay was carried out at least in triplicate.
as §2
as §3, with “Effects” for “S. mutans, S. gordonii, and S. sanguinis growth assays. Effects”, “PEHA5, PEHA6, HA5 or HA6” for “compounds”, “described^[62].” for “described^69.”, “PEHA5, PEHA6, HA5 or HA6” for “inhibitor”, “CDM” for “chemically defined media (CDM)”

A short description of data set [3]: Solubility in water containing 1% DMSO (UV spectroscopy). The format is physicochemical. To be noted: for solubility compared with IIIC5: comparison with IIIC5 (25 μg/mL); for solubility: organic solvent or mixture, water containing 1% DMSO. On the procedure: Solubility of MA1-6 and HA2-6 were determined as reported^46 (Table 1).
General considerations. ^1H-NMR and ^13C-NMR spectra were recorded on Bruker Avance Neo 400 and Avance II 700 spectrometers using TMS or appropriate solvent signals as internal standard. The chemical shift values are given in parts per million (ppm) relative to the internal standard used and the coupling constants (J) are given in hertz (Hz). High resolution mass spectra (HRMS) were recorded using Waters AutoSpec-Ultima™ NT magnetic sector mass spectrometer with Electron Impact (EI) Ionization source. The mass analyzer is an electric-magnetic-electric (EBE) sector (a double focusing sector). Anhydrous solvents used for reactions were purchased in Sure-Seal™ bottles from Aldrich chemical company. Other chemical reagents were purchased from Aldrich or Fisher chemical companies and used as received. Reactions were monitored with thin layer chromatography (TLC), which was done on silica gel plates with fluorescent indicator (Silicycle, silica gel, UV254, 25 μm plates). The TLC spots were observed under UV light with the wavelengths 254 nm and 365 nm. The reaction mixtures were purified by column chromatography using Si gel (32-63 μm) from Dynamic Absorbent, Inc. Melting points were determined on a Mel-Temp II melting point apparatus and are uncorrected. All tested compounds have ≥95% purity as determined by HPLC. HPLC traces were obtained using Shimadzu SPD-M20A. Solubility of compounds were determined by UV-spectroscopy method using Agilent Cary 60 UV-Vis spectrophotometer. HPLC analysis of the final compounds were conducted using Kinetex 5 μm C18 100 Å, LC Column 150×4.6 mm, compound=3 mM, 20 μL injection, solvent: mobile phase buffer, Conditions: 60% MeCN/40% H2O/0.1% Formic acid (isocratic), HPLC method 0-10 min, Signals were analyzed using a 254 nm UV detector. A chromatogram of Mobile Phase Buffer (20 μL) was obtained for comparison.

The conditions of data set [4]: water, 1% dmso; cited from earlier work.
Setting [5] is: S. mutans UA159 biofilm, read-out: Biofilm IC50.

≈ marks a conversion by molar mass, not a printed value. Where two headings read alike, the source gives them in different places. Bounds are passed on as bounds.

As for `O=C(C=Cc1ccccc1)c1ccccc1O` [Compound 3a, 1-(2-Hydroxyphenyl)-3-phenyl-2-propen-1-one], in data set [1] (UA159, read-out: Biofilm IC50), the IC50 (as a rule, the concentration at which inhibition is half-maximal) is greater than 300 µM.
Same read-out and setting: with `COc1ccc(C=CC(=O)c2ccccc2O)cc1` [Compound 3b, 1-(2-Hydroxyphenyl)-3-(4′-methoxyphenyl)-2-propen-1-one] the figure was greater than 300 µM; with `COc1ccc(C=CC(=O)c2ccccc2O)cc1OC` [Compound 3c, 3-(3′,4′-Dimethoxyphenyl)-1-(2-hydroxyphenyl) prop-2-en-1-one], greater than 300 µM; with `COc1cc(C=CC(=O)c2ccccc2O)cc(OC)c1` [Compound 3d, 3-(3′,5′-Dimethoxyphenyl)-1-(2-hydroxyphenyl) prop-2-en-1-one], greater than 300 µM.
Still for that read-out and setting: with `COc1cc(OC)c(OC)cc1C=CC(=O)c1ccccc1O` [Compound 3e, 1-(2-Hydroxyphenyl)-3-(2′,4′,5′-trimethoxyphenyl) prop-2-en-1-one] the figure was greater than 300 µM.
As for `COc1cc(C=CC(=O)c2ccccc2O)cc(OC)c1OC` [Compound 3f, 1-(2-Hydroxyphenyl)-3-(3′,4′,5′-trimethoxyphenyl) prop-2-en-1-one], in data set [1], testing at 50 µM gave an inhibition of 40%. Besides, the IC50 in data set [1] (UA159, read-out: Biofilm IC50) is 181 µM. Further, the “planktonic growth of S. mutans” value in data set [2] (50 μM) is “no growth inhibition”.
Turning to `O=C1/C(=C/c2ccc(O)cc2)Oc2ccccc21` [HA2, 2-[(4′-Hydroxyphenyl)methylidene]-2,3-dihydro-1-benzofuran-3-one], in data set [3], the “solubility compared with IIIC5” value was “lower solubility than IIIC5” and the solubility (as a rule, the concentration that dissolves in the medium under given conditions) turned out to be 18.9 µg/mL (≈ 79.5 µM). Moreover, the inhibition (usually how much of the control response was suppressed) at 50 µM in data set [1] is greater than 95%. Moreover, the IC50 in data set [1] (UA159, read-out: Biofilm IC50) is 18.8 ± 2.36 µM. The “planktonic growth inhibition of S. mutans” value in data set [2] (50 μM) is 70%. The inhibition at 50 µM in data set [2] worked out at 60%.
Regarding `O=C1/C(=C/c2ccc(O)c(O)c2)Oc2ccccc21` [HA3, 2-[(3′,4′-Dihydroxyphenyl)methylidene]-2,3-dihydro-1-benzofuran-3-one], the solubility in data set [3] (UV spectroscopy) was 81.6 µg/mL (≈ 321 µM). The results for the inhibition at 50 µM in data set [1] and in data set [2] were roughly 80% and 40%, respectively. The IC50 is 30.7 µM in data set [1] (UA159, read-out: Biofilm IC50) and 30.7 µM in data set [1] (setting [5]).
`O=C1/C(=C/c2cc(O)cc(O)c2)Oc2ccccc21` [HA4, 2-[(3′,5′-Dihydroxyphenyl)methylidene]-2,3-dihydro-1-benzofuran-3-one]: the solubility in data set [3] (UV spectroscopy) is 76.5 µg/mL (≈ 301 µM). The “S. mutans biofilm inhibition” value in data set [1] is reported as “did not show significant biofilm inhibition”. Further, the IC50 in data set [1] (UA159, read-out: Biofilm IC50) was 94.2 µM; in data set [1] (setting [5]), 94.2 µM. For the same compound, in data set [2], the inhibition at 50 µM was found to be 30%.
`O=C1C(=Cc2ccccc2)Oc2ccccc21` [MA1, 2-(Phenylmethylidene)-2,3-dihydro-1-benzofuran-3-one]: the “solubility compared with IIIC5” value in data set [3] was “lower solubility than IIIC5”. In data set [3] (UV spectroscopy), the solubility was found to be 8.51 ± 2 µg/mL (≈ 38.3 µM). Besides, the IC50 in data set [1] (UA159, read-out: Biofilm IC50) stood at 33.6 ± 0.53 µM. The inhibition at 50 µM in data set [2] is 80%.
As to `COc1ccc(/C=C2\Oc3ccccc3C2=O)cc1` [MA2, 2-[(4′-Methoxyphenyl)methylidene]-2,3-dihydro-1-benzofuran-3-one], in data set [3], the “solubility compared with IIIC5” value was “lower solubility than IIIC5” and the solubility turned out to be 16.2 µg/mL (≈ 64.3 µM). The IC50 in data set [1] (UA159, read-out: Biofilm IC50) is 108 µM. Moreover, the IC50 in data set [1] (UA159, read-out: Biofilm IC50 (unit inferred)) came out at 108 µM.
In the case of `COc1ccc(/C=C2\Oc3ccccc3C2=O)cc1OC` [MA3, 2-[(3′,4′-Dimethoxyphenyl)methylidene]-2,3-dihydro-1-benzofuran-3-one], in data set [3], the solubility stood at 36.3 µg/mL (≈ 128 µM). The “S. mutans biofilm inhibition” value in data set [1] is “inactive”. Further, the IC50 in data set [1] (UA159, read-out: Biofilm IC50) was 49.4 µM; in data set [1] (setting [5]), 49.4 µM.
Take `COc1cc(/C=C2\Oc3ccccc3C2=O)cc(OC)c1` [MA4, 2-[(3′,5′-Dimethoxyphenyl)methylidene]-2,3-dihydro-1-benzofuran-3-one]: in data set [3], the “solubility compared with IIIC5” value is given as “lower solubility than IIIC5” and the solubility is 19 µg/mL (≈ 67.2 µM). Also, the IC50 in data set [1] (UA159, read-out: Biofilm IC50) was greater than 300 µM.
Regarding `COc1cc(OC)c(OC)cc1/C=C1\Oc2ccccc2C1=O` [MA5, 2-[(2′,4′,5′-Trimethoxyphenyl)methylidene]-2,3-dihydro-1-benzofuran-3-one], in data set [3], the solubility came out at 42.4 µg/mL (≈ 136 µM). The inhibition at 50 µM is 60% in data set [1] and 30% in data set [2]. In addition, the IC50 in data set [1] (UA159, read-out: Biofilm IC50) is 52.8 µM; in data set [1] (setting [5]), 52.8 µM.
For `COc1cc(/C=C2\Oc3ccccc3C2=O)cc(OC)c1OC` [MA6, 2-[(3′,4′,5′-Trimethoxyphenyl)methylidene]-2,3-dihydro-1-benzofuran-3-one], the solubility in data set [3] came out at 44.7 µg/mL (≈ 143 µM). Also, in data set [1] (UA159, read-out: Biofilm IC50), the IC50 is greater than 300 µM.
Regarding `O=C(O)c1ccccc1O` [Salicylic acid], the solubility in data set [4] was 1880 ± 30 µg/mL (≈ 13600 µM).
